# In ChEMBL document CHEMBL3588775, “Synthesis and pharmacological evaluation of N-benzyl substituted 4-bromo-2,5-dimethoxyphenethylamines as 5-HT2A/2C partial agonists” (Bioorg Med Chem, 2015):
# Tests used:
# [1] = target: T1, 5-hydroxytryptamine receptor 2A (Homo sapiens, UniProt P28223); test: Binding affinity to 5-HT2A receptor (unknown origin) by PDSP assay
# [2] = target: T2, 5-hydroxytryptamine receptor 2C (Homo sapiens, UniProt P28335); test: Binding affinity to 5-HT2C receptor (unknown origin) by PDSP assay
# T2 sequence (P28335 whole entry): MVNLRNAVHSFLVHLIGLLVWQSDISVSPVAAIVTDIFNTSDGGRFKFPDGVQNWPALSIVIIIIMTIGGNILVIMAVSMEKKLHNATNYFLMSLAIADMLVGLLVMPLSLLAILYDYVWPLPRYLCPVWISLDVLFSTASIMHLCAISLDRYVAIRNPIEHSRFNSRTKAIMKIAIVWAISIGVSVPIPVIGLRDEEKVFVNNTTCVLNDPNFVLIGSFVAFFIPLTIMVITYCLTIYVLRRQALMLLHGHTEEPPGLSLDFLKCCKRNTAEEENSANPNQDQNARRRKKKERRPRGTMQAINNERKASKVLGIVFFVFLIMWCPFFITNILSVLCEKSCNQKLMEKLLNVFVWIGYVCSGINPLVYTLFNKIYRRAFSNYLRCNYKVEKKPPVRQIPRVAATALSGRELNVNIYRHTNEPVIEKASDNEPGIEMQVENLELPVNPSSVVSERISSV
# [3] = target: T3, Serotonin 2 receptors; 5-HT2a & 5-HT2c (Homo sapiens) (UniProt P28223+P28335); test: Selectivity for 5-HT2A receptor (unknown origin) over 5-HT2C receptor (unknown origin) by PDSP assay
# [4] = target: T4, 5-hydroxytryptamine receptor 2C (Homo sapiens) (UniProt P28335); test: Partial agonist activity at human 5-HT2C receptor expressed in HEK293 cells preincubated for 1 hr at 37 degC followed by incubated for 15 mins at room temperature by IP-One assay relative to 5-HT; assay type: cell-based
# T4 sequence (whole entry): T2 sequence (P28335 whole entry)
# [5] = target: T1, 5-hydroxytryptamine receptor 2A; test: Partial agonist activity at human 5-HT2A receptor expressed in HEK293 cells preincubated for 1 hr at 37 degC followed by incubated for 15 mins at room temperature by IP-One assay relative to 5-HT; assay type: cell-based
# [6] = target: T2, 5-hydroxytryptamine receptor 2C; test: Partial agonist activity at human 5-HT2C receptor expressed in HEK293 cells preincubated for 1 hr at 37 degC followed by incubated for 15 mins at room temperature by IP-One assay; assay type: cell-based
# [7] = target: T1, 5-hydroxytryptamine receptor 2A
# [8] = target: T3, Serotonin 2 receptors; 5-HT2a & 5-HT2c (Homo sapiens); test: Selectivity for human 5-HT2A receptor over human 5-HT2C receptor by IP-One assay
# [9] = target: T3, Serotonin 2 receptors; 5-HT2a & 5-HT2c (Homo sapiens); test: Selectivity for human 5-HT2A receptor over human 5-HT2C receptor by inositol phosphate turnover assay; assay type: functional
# [10] = Selectivity for human 5-HT2A receptor over rat 5-HT2C receptor by PDSP assay
# [11] = target: T1, 5-hydroxytryptamine receptor 2A; test: Partial agonist activity at human 5-HT2A receptor expressed in human tsA201 cells after 30 mins by inositol phosphate turnover assay relative to 5-HT; assay type: functional, cell-based
# [12] = target: T2, 5-hydroxytryptamine receptor 2C; test: Partial agonist activity at human 5-HT2C receptor expressed in human tsA201 cells after 30 mins by inositol phosphate turnover assay; assay type: functional, cell-based
# [13] = target: T5, 5-hydroxytryptamine receptor 2C (Rattus norvegicus, UniProt P08909); test: Displacement of [3H]-Mesulergine from rat 5-HT2C receptor by PDSP assay
# T5 sequence (P08909 whole entry): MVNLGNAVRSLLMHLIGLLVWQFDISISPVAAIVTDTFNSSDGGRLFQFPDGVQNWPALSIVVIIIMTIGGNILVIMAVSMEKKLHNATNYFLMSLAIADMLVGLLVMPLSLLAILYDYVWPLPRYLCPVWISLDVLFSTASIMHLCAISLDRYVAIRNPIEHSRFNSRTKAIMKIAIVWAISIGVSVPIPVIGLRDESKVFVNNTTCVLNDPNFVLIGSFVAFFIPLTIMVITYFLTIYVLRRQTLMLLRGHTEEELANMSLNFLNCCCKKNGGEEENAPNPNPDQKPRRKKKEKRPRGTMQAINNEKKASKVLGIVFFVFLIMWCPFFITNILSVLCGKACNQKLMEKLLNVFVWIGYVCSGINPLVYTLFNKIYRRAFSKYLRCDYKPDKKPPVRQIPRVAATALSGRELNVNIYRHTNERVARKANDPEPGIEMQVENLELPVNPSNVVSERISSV
# [14] = target: T1, 5-hydroxytryptamine receptor 2A; test: Displacement of [3H]-Ketanserin from human 5-HT2A receptor by PDSP assay
# [15] = target: T1, 5-hydroxytryptamine receptor 2A; test: Partial agonist activity at human 5-HT2A receptor expressed in human tsA201 cells after 30 mins by inositol phosphate turnover assay; assay type: functional, cell-based
# [16] = target: T4, 5-hydroxytryptamine receptor 2C (Homo sapiens); test: Partial agonist activity at human 5-HT2C receptor expressed in human tsA201 cells after 30 mins by inositol phosphate turnover assay relative to 5-HT; assay type: functional, cell-based
# T1 sequence (P28223 whole entry): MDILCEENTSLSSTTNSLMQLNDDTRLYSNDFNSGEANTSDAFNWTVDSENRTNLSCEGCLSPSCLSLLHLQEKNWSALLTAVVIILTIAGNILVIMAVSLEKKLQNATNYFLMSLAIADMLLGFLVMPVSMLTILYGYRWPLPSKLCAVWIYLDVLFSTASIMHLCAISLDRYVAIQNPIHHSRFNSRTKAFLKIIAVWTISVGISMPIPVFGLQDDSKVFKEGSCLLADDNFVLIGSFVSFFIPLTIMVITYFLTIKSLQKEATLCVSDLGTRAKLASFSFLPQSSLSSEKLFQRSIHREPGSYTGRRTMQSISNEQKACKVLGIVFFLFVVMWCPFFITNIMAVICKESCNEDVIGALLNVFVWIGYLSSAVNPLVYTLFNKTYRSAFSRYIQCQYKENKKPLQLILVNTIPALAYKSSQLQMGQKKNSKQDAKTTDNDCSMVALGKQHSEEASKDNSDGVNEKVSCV
# T3 sequence (P28223 whole entry, looked up, one chain of several): as the sequence (P28223 whole entry) above
Compound,Ki [1] [nM],Ki [2] [nM],Selectivity ratio [3],also measured
COc1ccc(CNCCc2cc(OC)c(Br)cc2OC)c(OC)c1,20,26.9,1.3,
COc1cc(CCNCc2cccc(OC)c2OC)c(OC)cc1Br,3.09,23.4,7.5,
COc1cc(CCNCc2cccnc2OC)c(OC)cc1Br,79.4,70.8,0.9,
COc1cc(CCNCc2cccc3ncoc23)c(OC)cc1Br,11,32.4,2.9,
COc1cc(CCNCc2cccnc2)c(OC)cc1Br,83.2,120,1.4,
COc1cc(CC(C)N)c(OC)cc1I (configuration not stated),,,,Emax [4]: 119%; Emax [5]: 87%; EC50 [6]: 45.7 nM
COc1cc(CCNCc2cccc3cc[nH]c23)c(OC)cc1Br,12.9,66.1,5.1,
COc1cc(CCNCc2cccc(OC)c2O)c(OC)cc1Br,0.2,6.31,32,EC50 [7]: 33.9 nM; Emax [4]: 52%; Emax [5]: 21%; EC50 [6]: 15500 nM; Selectivity ratio [8]: 457
COc1cc(CCNCc2cccc(O)c2)c(OC)cc1Br,1.35,20.9,16,
COc1cc(CCNCc2ccc[nH]c2=O)c(OC)cc1Br,123,120,1,
COc1cc(CCNCc2cccc(OC)c2F)c(OC)cc1Br,3.31,56.2,17,EC50 [7]: 105 nM; Emax [4]: 16%; Emax [5]: 22%; EC50 [6]: 282 nM; Selectivity ratio [8]: 2.7
COc1cccc(CNCCc2cc(OC)c(Br)cc2OC)c1,0.437,4.68,11,
COc1cc(CCNCc2cccc3c2OCO3)c(OC)cc1Br,,,,Selectivity ratio [9]: 18; Selectivity ratio [10]: 18.6; Emax [11]: 71%; EC50 [12]: 219 nM; Ki [13]: 11.2 nM; Ki [14]: 0.603 nM; EC50 [15]: 10.5 nM; Emax [16]: 84%
COc1cc(CCNCc2cccc3ccsc23)c(OC)cc1Br,1.7,7.76,4.5,
COc1cc(CCNCc2cccc3nc[nH]c23)c(OC)cc1Br,7.76,9.33,1.2,
COc1cc(CCNCc2ccccn2)c(OC)cc1Br,38.9,41.7,1.1,
COc1ccc(OC)c(CNCCc2cc(OC)c(Br)cc2OC)c1,30.9,77.6,2.5,
COc1cc(CCNCc2cccc3cn[nH]c23)c(OC)cc1Br,12,24,2,
COc1cc(CCNCc2cccc3ccoc23)c(OC)cc1Br,0.603,2.51,4.2,
COc1cc(CCNCc2ccccc2OC)c(OC)cc1Br,,,,Selectivity ratio [10]: 100
COc1cc(CCNCc2c(OC)cccc2OC)c(OC)cc1Br,316,17.4,0.06,EC50 [7]: 5370 nM; Emax [4]: 33%; Emax [5]: 53%; EC50 [6]: 87100 nM; Selectivity ratio [8]: 16
COc1cc(CCNCc2cccc3c2OCC3)c(OC)cc1Br,0.2,3.39,17,EC50 [7]: 4.57 nM; Emax [4]: 52%; Emax [5]: 33%; EC50 [6]: 32.4 nM; Selectivity ratio [8]: 7.1
COc1cc(CCNCc2ccncc2)c(OC)cc1Br,141,155,1.1,
